Assay results reported in patent US9897592B2, “Methods for identifying arthropod repellents and attractants, and compounds and compositions identified by such methods” (The Regents of the University of California, priority 2013, dated 2018).

Columns and labels:
C. quinquefasciatus = assay: Semi-field two-choice greenhouse trapping; assay type: in vivo, Culex quinquefasciatus
Text: FIG. 4g is a schematic of two-choice greenhouse experiments with two counterflow geometry traps, in which mosquitoes were trapped overnight in odorant-baited and solvent (water)-baited traps.
Semi-field trapping: Two modified greenhouses at the Agricultural Experiment Station at the University of California, Riverside, were used as described previously^2, with modifications. Fifty laboratory-reared, mated, non-blood fed female C. quinquefasciatus aged 8-14 days and starved for 24 hrs were released each evening around 5 pm and traps collected at ˜7 am. Counter flow geometry traps baited with CO2 (250 ml min^−1, ˜670 mmol/hr) odorant were used as described^2, with modifications. Odorant solutions in water were dispensed from 20 cm long gauze wicks protruding from uncapped 50 ml tubes beneath the trap outflow. For each trial, one baited trap and one control trap (water-filled) were placed in each of two greenhouses (FIG. 4g). For two-choice CO2 trials, water was placed under both traps. For two-choice ethyl pyruvate trials, both traps expelled CO2, and one trap also released ethyl pyruvate from an open 2.8×7 cm glass vial. Since ethyl pyruvate has very low volatility pure compound was used to generate ˜1.7 mmol/hr. An empty vial was placed under control traps. Treatment position and trap were alternated across trials. Volume of solution lost from tubes containing 5%, 10%, or 20% cyclopentanone were measured after each trial and the average loss of molecules calculated respectively for 3 concentrations as (±s.d.) of 0.7 (±0.1), 1.7 (±0.4), and 3.8 (±0.3) mmol/hr, respectively. Preference index=(# mosquitoes in odor-baited trap−# mosquitoes in control trap)/(total # mosquitoes caught in both traps).
The efficacy of cyclopentanone as a lure was tested using traps in controlled semi-field experiments with C. quinquefasciatus, a mosquito present in Southern California, where the experiments took place. 50 female mosquitoes were released overnight in a modified greenhouse that contained two counter-flow geometry mosquito traps (FIG. 4g). One trap was baited with an evaporative lure of cyclopentanone diluted in water, and the second trap was baited with water alone.

cpA neuron [1] = assay: Single-sensillum recording: activation of cpA neuron by odorants; assay type: cell-based, Aedes aegypti
How it was run: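 Single-sensillum extracellular recordings from cp sensilla of adult female A. aegypti (Rockefeller), 3-12 days post-emergence. Odorants at 10^−2 in paraffin oil or water, 0.5-s pulses; solvent response subtracted, spikes counted; n=2-6, sensilla with <20 spikes s^−1 to negative control only.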

cpA neuron [2] = assay: cpA dose response in C. quinquefasciatus; assay type: cell-based, Culex quinquefasciatus
Description: FIG. 4d is a graph illustrating the dose responses of the cpA neuron to cyclopentanone in A. aegypti and C. quinquefasciatus, where n=5-6.
Adult female A. aegypti (Linnaeus 1762) (Rockefeller strain) A. gambiae sensu stricto Giles 1902 (G3 strain), or C. quinquefasciatus Say 1823 were tested 3-12 days post-emergence with single-sensillum extracellular recordings. Chemicals were obtained from Sigma-Aldrich at the highest purity (typically >99%) and were dissolved in paraffin oil or water. […] Response to clean beads was subtracted from the results reported. Only sensilla with cpA activity of <20 spikes s^−1 to negative control were considered for analysis.
Taken together, the strong and conserved cpA response, promising safety and fragrance profile, and ability to mimic CO2 activation made cyclopentanone an excellent candidate for behavioural testing.

[3] = biological target: human acetylcholinesterase (Homo sapiens, UniProt P22303); conditions: cited from earlier work
[4] = test system: mammalian cation channels; conditions: cited from earlier work

Sequence of human acetylcholinesterase (P22303 32-614): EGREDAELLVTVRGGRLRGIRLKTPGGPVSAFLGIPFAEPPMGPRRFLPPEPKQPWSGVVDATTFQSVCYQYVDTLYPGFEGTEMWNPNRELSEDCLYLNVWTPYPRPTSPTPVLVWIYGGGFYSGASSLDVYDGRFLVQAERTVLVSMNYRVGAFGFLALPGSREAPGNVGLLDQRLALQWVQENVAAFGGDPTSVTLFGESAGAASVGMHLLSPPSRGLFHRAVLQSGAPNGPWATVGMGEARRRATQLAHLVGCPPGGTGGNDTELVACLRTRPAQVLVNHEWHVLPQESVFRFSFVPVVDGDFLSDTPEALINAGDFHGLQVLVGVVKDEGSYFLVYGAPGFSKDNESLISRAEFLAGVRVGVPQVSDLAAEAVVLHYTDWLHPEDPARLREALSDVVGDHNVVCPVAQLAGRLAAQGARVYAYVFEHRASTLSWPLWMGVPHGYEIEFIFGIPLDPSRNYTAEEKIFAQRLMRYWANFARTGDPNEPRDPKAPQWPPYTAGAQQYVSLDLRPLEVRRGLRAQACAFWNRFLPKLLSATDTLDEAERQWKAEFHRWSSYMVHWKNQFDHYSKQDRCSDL

Row | SMILES | fold fewer molecules released than CO2 for comparable catch rate (C. quinquefasciatus; calculated from amount evaporated) | trap preference, odorant-baited vs solvent-baited trap (C. quinquefasciatus; evaporative lure in water, overnight) | capture numbers relative to CO2-baited traps (C. quinquefasciatus; similar trials in parallel) | Activation (spikes s^−1) (cpA neuron [1]; A. aegypti cpA, 0.5-s pulses, odorants 10^−2 in paraffin oil or water, solvent response subtracted) | cpA activation (cpA neuron [1]; A. aegypti dose response) | cpA activation (cpA neuron [2]) | inhibition of human acetylcholinesterase [3] | inhibition of mammalian cation channels [4]
1 | O=C1CCCC1 [Cyclopentanone] | ~176 fold | preferred cyclopentanone over solvent-baited traps in a dose-dependent manner | comparable | 120.1 spikes s^−1 | strong activator | strong activator |  | 
2 | CCN(CC)C(=O)c1cccc(C)c1 [DEET, N,N-Diethyl-m-toluamide] |  |  |  |  |  |  | inhibit | inhibit
